Like-named read-outs stand apart in the source and are kept apart here.
Legend:
[1] = target: T1, lipoxygenase (Rattus norvegicus, UniProt P12527); experiment: inhibition of arachidonic acid metabolism via the lipoxygenase route: LTB4 release from PMN of the rat after stimulation with Ca ionophor, reverse phase HPLC; type: cell-based; settings: read-out: % inhibition of lipoxygenase at 1 × 10^-5 mol/l
T1 construct: release of LTB4 from neutrophilic granulocytes (PMN) of the rat; endogenous in cells; host or cells: rat neutrophilic granulocytes (PMN)
T1 sequence (P12527 1-673): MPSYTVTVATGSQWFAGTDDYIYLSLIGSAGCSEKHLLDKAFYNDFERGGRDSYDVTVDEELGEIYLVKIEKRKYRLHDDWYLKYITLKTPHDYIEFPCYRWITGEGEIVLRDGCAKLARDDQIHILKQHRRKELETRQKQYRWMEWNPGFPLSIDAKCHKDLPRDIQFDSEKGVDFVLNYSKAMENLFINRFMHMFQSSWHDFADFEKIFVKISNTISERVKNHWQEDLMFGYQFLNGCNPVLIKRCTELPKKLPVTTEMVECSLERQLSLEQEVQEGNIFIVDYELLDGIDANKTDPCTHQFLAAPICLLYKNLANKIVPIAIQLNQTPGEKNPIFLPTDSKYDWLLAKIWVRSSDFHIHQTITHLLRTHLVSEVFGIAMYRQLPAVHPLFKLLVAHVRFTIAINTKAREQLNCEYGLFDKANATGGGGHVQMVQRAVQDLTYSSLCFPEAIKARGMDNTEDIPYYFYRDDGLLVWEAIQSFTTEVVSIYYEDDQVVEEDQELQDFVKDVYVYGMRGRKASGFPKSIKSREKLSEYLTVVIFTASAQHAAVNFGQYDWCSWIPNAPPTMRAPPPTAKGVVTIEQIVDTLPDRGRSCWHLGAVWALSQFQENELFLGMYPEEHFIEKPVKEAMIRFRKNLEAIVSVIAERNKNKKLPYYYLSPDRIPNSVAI

[2] = target: T2, cyclooxygenase (Mus musculus, UniProt P22437); experiment: inhibition of arachidonic acid metabolism via the cyclooxygenase route (Brune et al.); type: biochemical; settings: read-out: % inhibition of cyclooxygenase at 1 × 10^-5 mol/l
T2 construct: endogenous in cells
T2 sequence (P22437 27-602): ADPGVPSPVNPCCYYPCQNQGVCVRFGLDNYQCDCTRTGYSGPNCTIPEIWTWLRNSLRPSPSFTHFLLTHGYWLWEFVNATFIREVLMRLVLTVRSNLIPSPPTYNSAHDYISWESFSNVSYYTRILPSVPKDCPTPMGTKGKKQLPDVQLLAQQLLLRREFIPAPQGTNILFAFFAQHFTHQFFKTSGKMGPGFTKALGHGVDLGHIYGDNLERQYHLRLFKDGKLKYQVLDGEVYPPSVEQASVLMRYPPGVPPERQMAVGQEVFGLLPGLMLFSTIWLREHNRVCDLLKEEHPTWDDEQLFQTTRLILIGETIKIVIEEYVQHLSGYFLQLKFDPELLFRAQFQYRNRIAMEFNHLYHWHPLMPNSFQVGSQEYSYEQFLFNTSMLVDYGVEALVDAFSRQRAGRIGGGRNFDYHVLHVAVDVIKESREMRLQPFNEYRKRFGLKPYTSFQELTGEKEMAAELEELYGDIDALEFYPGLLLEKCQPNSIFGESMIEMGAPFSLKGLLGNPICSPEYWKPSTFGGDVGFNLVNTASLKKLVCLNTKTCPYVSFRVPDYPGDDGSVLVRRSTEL

[3] = system: oedema induced by carrageenan in the rat paw; experiment: inhibition of carrageenan-induced oedema in the rat paw (Winter et al., modified); type: in vivo; settings: po, read-out: % inhibition of carrageenan oedema at 2.5 mg/kg orally
[4] = system: PMN; experiment: inhibition of aggregation of PMN stimulated by LTB4 (Cunningham et al.); type: cell-based; settings: 1 × 10^-4 mol/l
[5] = 1 × 10^-5 mol/l, LTB4 release from rat PMN, Ca ionophor
[6] = rat paw, 2.5 mg/kg orally, λ-carrageenan 0.25% suspension in physiological saline

Row | inhibition at 10 µM [2] [%] | inhibition at 10 µM [1, 5] [%] | SMILES | inhibition at 10 µM [1] [%] | inhibition in vivo at 2.5 mg/kg ([3]; Rattus norvegicus) [%] | inhibition at 100 µM [4] [%] | inhibition in vivo at 2.5 mg/kg [3, 6] [%]
1 | 78 | 98 | COC1=CC(=O)c2ccccc2C1=O [Compound 2] | – | – | 76 | 29
2 | 45 | 100 | COCCOC1=CC(=O)c2ccccc2C1=O [Compound 3] | – | – | – | 38
3 | 37 | 100 | COC1=C(OC)C(=O)c2ccccc2C1=O [Compound 4] | – | – | 79 | 36
4 | 65 | 100 | NC1=CC(=O)c2cc(S(N)(=O)=O)ccc2C1=O [Compound 6] | – | – | 77 | 39
5 | 65 | 100 | CC(=O)NC1=CC(=O)c2ccccc2C1=O [Compound 7] | – | – | 49 | 32
6 | 72 | 100 | CC1=C(SCC(=O)O)C(=O)c2ccccc2C1=O [Compound 8] | – | – | 34 | 41
7 | 89 | 100 | CNC(=O)CSC1=C(C)C(=O)c2ccccc2C1=O [Compound 9] | – | – | 100 | 25
8 | 89 | 100 | CC1=C(SCC(=O)NC(C)C)C(=O)c2ccccc2C1=O [Compound 10] | – | – | 95 | 45
9 | 50 | 80 | O=C(CSC1=C(SCC(=O)NCCO)C(=O)c2ccccc2C1=O)NCCO [Compound 11] | – | – | 36 | 45
10 | 38 | 100 | C=CCNC1=CC(=O)c2cc(S(N)(=O)=O)ccc2C1=O [Compound 12, 2-Allylamino-6-sulphamoyl-1,4-naphthoquinone] | – | – | 72 | 39
11 | – | 100 | CCC(=O)NC1=C(OCCOC)C(=O)c2ccccc2C1=O [Compound 13, 2-Propionylamino-3-(2-methoxyethoxy)-1,4-naphthoquinone] | – | – | – | 48
12 | – | 100 | CCOC1=C(NC(C)=O)C(=O)c2ccccc2C1=O [Compound 14, 2-Acetylamino-3-ethoxy-1,4-naphthoquinone] | – | – | – | 49

Row | SMILES | inhibition at 10 µM [2] [%] | inhibition at 10 µM [1, 5] [%] | inhibition at 10 µM [1] [%] | inhibition in vivo at 2.5 mg/kg ([3]; Rattus norvegicus) [%] | inhibition at 100 µM [4] [%] | inhibition in vivo at 2.5 mg/kg [3, 6] [%]
13 | O=C1C=C(O)C(=O)c2ccccc21 [Compound 1] | 31 | – | 70 | 34 | – | –
14 | NC1=CC(=O)c2ccccc2C1=O [Compound 5] | 55 | – | 100 | 48 | – | –
